Source: patent US20250340516A1, “Isoquinolinones as Modulators of POLRMT” (Pretzel Therapeutics, Inc., priority 2024, published 2025)

Target: POLRMT (Homo sapiens (Human), UniProt O00411)
Assay: homogeneous TR-FRET assay of POLRMT inhibition (mitochondrial transcription, 407 bp RNA product)
Type: biochemical
Details: 7.5 nM POLRMT, 15 nM TFB2M, 30 nM TFAM, 0.5 nM DNA template, 500 μM NTPs, 37° C., 60 minutes, * = aggregation of data sets, read-out: IC50 values for isoquinolinone compounds

Sequence of POLRMT (O00411 42-1230): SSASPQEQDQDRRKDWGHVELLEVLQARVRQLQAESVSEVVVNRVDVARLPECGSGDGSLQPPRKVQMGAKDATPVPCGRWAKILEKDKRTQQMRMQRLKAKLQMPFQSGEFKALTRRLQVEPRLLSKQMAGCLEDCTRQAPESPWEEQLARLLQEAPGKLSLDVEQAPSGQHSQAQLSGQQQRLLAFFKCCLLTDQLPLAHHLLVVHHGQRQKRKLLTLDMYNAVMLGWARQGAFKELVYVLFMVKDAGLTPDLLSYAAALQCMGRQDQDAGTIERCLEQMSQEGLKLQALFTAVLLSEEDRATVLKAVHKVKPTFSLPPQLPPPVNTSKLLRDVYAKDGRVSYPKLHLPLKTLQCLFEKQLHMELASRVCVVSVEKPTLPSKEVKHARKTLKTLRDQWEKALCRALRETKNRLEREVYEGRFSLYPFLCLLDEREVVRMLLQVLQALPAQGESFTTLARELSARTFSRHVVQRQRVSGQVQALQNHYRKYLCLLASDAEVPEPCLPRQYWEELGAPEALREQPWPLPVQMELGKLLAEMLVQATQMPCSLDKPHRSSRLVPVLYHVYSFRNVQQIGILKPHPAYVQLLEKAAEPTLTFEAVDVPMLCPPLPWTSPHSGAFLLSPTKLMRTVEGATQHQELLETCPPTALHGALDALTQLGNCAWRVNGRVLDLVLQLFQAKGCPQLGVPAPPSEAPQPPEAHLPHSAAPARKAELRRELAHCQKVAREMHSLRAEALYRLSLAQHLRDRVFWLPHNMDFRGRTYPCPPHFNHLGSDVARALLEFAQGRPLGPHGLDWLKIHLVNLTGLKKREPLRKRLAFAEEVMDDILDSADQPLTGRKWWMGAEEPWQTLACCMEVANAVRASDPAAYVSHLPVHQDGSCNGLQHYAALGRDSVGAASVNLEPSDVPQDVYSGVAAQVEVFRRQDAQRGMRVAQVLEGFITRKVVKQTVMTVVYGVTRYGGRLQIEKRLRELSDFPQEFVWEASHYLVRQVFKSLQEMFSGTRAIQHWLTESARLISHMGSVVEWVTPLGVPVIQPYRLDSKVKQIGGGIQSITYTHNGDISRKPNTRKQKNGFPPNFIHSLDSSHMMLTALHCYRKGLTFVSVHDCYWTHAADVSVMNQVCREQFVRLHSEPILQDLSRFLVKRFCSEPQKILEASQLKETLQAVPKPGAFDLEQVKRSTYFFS

IC50: 100 nM
SMILES: Cc1cccc(C)c1-c1c[nH]c(=O)c2cc(O[C@H](C)C(=O)N3CCC(C)(C(=O)O)CC3)ccc12 [Example 20, (R)-1-(2-((4-(2,6-dimethylphenyl)-1-oxo-1,2-dihydroisoquinolin-7-yl)oxy)propanoyl)-4-methylpiperidine-4-carboxylic acid]
